# How the values were obtained:
# eGFP-53BP1 = eGFP-53BP1 (Homo sapiens, UniProt Q12888); test: eGFP-53BP1 foci count per nucleus by confocal microscopy, DIvA cells; format: cell-based
# [1] = biological target: 53BP1 TTD (tandem tudor domain) (Homo sapiens, UniProt Q12888); test: SPR, OneStep gradient injections, kinetic fit with mass transport; format: binding
# Sequence of 53BP1 TTD (tandem tudor domain) (Q12888 1483-1606): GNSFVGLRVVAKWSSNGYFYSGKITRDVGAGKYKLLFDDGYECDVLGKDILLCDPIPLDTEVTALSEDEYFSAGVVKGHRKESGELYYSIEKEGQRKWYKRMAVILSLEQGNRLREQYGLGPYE
# Sequence of eGFP-53BP1 (Q12888 whole entry, the tested form may be a part): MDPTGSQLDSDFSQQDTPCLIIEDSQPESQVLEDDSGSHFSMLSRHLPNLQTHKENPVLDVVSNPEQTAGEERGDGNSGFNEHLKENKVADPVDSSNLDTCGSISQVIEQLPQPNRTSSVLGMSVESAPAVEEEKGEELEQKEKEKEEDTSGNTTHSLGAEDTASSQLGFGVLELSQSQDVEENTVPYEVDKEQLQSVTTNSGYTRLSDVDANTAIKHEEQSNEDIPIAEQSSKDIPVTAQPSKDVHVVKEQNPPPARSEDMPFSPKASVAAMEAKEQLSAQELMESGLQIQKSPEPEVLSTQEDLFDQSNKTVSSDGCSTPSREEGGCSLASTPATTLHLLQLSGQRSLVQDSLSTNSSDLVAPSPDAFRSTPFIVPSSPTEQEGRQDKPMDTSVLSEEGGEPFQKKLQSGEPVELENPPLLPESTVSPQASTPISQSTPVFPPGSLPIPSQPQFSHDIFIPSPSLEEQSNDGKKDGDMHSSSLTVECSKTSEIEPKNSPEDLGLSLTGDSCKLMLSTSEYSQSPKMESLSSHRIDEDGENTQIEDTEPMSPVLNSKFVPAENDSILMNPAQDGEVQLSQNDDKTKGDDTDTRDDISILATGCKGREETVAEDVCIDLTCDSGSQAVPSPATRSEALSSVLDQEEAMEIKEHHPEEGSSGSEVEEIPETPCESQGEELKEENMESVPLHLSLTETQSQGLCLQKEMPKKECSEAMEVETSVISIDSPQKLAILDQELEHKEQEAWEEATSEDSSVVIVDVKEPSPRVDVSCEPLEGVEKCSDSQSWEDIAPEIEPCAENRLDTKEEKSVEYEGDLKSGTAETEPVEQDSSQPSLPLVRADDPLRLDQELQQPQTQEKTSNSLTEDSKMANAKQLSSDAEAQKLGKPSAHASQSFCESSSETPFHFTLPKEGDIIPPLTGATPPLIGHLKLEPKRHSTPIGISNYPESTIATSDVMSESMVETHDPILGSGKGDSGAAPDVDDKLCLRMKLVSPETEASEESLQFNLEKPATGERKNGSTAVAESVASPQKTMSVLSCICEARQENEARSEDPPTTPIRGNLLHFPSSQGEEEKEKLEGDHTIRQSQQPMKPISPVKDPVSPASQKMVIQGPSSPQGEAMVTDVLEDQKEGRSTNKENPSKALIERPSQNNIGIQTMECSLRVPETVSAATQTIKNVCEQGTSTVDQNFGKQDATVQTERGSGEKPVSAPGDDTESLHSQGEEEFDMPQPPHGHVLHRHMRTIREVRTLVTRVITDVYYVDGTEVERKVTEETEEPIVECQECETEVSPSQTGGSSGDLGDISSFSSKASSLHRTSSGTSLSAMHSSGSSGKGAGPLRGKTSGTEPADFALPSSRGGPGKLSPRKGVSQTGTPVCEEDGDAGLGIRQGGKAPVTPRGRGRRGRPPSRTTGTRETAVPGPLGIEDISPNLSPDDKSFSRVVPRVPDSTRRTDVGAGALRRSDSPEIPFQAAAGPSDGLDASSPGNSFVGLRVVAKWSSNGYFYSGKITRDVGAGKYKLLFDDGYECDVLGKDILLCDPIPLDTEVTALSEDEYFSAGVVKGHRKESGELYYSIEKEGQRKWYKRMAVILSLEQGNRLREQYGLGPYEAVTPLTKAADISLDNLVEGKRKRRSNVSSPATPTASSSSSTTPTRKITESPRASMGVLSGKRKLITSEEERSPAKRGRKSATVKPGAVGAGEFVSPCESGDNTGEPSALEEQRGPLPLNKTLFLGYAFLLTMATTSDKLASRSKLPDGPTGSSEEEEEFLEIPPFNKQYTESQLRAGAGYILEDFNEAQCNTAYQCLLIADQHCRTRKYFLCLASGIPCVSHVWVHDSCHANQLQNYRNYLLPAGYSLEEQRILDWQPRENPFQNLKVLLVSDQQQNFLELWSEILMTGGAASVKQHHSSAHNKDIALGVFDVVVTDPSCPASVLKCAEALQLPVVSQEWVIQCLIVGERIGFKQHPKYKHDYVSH
smiles,measurement,setting,value
"CCN1CCN(C(=O)c2ccc(Cn3nc(C)cc3C)cc2)CC1 [EoHR, (4-((3,5-dimethyl-1H-pyrazol-1-yl)methyl)phenyl)(4-ethylpiperazin-1-yl)methanone]",IC50,eGFP-53BP1,13 ± 5 µM
same,Kd,[1],14 µM
